From ChEMBL document CHEMBL5154913, “Phenyl Bis-Sulfonamide Keap1-Nrf2 Protein-Protein Interaction Inhibitors with an Alternative Binding Mode” (J Med Chem, 2022) come the findings set out here.

Converted amounts (≈) assume the structure as drawn.

A short description of data set [1]: Aqueous solubility of the compound at pH 7.4. The data set is classed as physicochemical. The following applies: aqueous medium.
Data set [2] is described as follows: Permeability of the compound across artificial membrane by IAM binding assay. The format is ADME.
In data set [3] the test system is ARPE-19. The data set can be described thus: Cytotoxicity against human ARPE-19 cells assessed as reduction in cell viability at 1 uM incubated for 96 hrs by MTT assay relative to control. The data set is classed as toxicity, cell-based. The note with it: arpe-19, 96 h. In general terms: Tetrazolium dyes change colour on reduction, which living cells bring about.

The solubility is the dissolved amount per volume that the medium holds. As to `COc1ccc(S(=O)(=O)N(CC(=O)O)c2ccc(N(CC(=O)O)S(=O)(=O)c3ccc(OC)cc3)c(OCc3ccccc3)c2)cc1`, the concentration in solution in data set [1] (solubility) was 348 µg/mL (≈ 519 µM).
Turning to `COc1ccc(S(=O)(=O)N(CC(=O)O)c2ccc(N(CC(=O)O)S(=O)(=O)c3ccc(OC)cc3)c(OCc3cccc(OC)c3)c2)cc1`, the “log K” value in data set [2] came to 1.83.
As for `COC(=O)[C@]12CCC(C)(C)C[C@H]1[C@H]1C(=O)C=C3[C@@]4(C)C=C(C#N)C(=O)C(C)(C)[C@@H]4CC[C@@]3(C)[C@]1(C)CC2` [BARDOXOLONE METHYL], in data set [3], the Activity entry is recorded as “Toxic”.
